{"source": "patent US20260102388A1", "about": "(priority 2022, published 2026)", "system": "SD rats", "assay": "Effect of compound implant of naltrexone on spontaneous activity", "settings": "implants 3 tablets/animal (diazepam 2 mg/kg), 60 min recording, X ± SEM", "experimental": "Test animals: SPF-grade Sprague-Dawley (SD) rats, weighing 200±20 g, and they were fed adaptively.\nAnimal grouping and administration: Animals were divided into 8 groups with 12 animals in each group, half male and half female. In the experiment, animals were divided into positive control group (diazepam group, with a dose of 2 mg/kg), negative control group (normal saline), Example 1 group, Example 2 group, Comparative Example 2 group, Comparative Example 4 group, Comparative Example 5 group (dose: 3 tablets/animal), and fasten for 12 h before administration. The dosage volume for rats was 10 mL/kg.\nThe experiment was divided into three periods: adaptation period, pre-testing period and post-administration testing period. […]\nOpen field adaptation: After environmental adaptation, single rat/mouse was put into a spontaneous activity box for 60 min to adapt to the experiment box, and the spontaneous activity within 60 min was recorded, the general adaptation was 2-3 days to reduce the impact of environmental stimulation.\nBaseline test: Single rat/mouse was put into a spontaneous activity box for 40 min to adapt to the experimental box, and spontaneous activity within 40 min was recorded, then divided equally to groups according to basic spontaneous activity. […]\nData were expressed as Mean±SEM. […]"}
{"smiles": "CN1C(=O)CN=C(c2ccccc2)c2cc(Cl)ccc21", "note": "[Positive control group, diazepam]", "values": [{"measurement": "total distance of activity", "value": "9698.94 ± 902.16", "unit": "mm"}]}
